Results: PMC11726150, “Pre‐ADMET studies of 5‐(3′,4′‐dihydroxyphenyl)‐γ‐valerolactone, the bioactive intestinal metabolite of proanthocyanidins” (Archiv Der Pharmazie, 2024)

How the values were obtained:
CYP3A4 = biological target: T1, CYP3A4 (Homo sapiens, UniProt P08684); experiment: CYP inhibition assay; type: biochemical; conditions: read-out: half‐maximal inhibitory concentration (IC50)
T1 construct: purchased
Protocol: (§1) The inhibitory potential of VL toward the catalytic activity of CYP3A4 and CYP1A2 was investigated through CYP inhibition assays using high‐throughput CYP450 screening kits. Stock solutions of VL (10 mM in DMSO) and specific positive controls for each CYP isoform were serially diluted in methanol and reactions were performed in 96‐well plates according to the supplier's instructions. Briefly, 40 μL (×2.5) of test compound and 50 μL master premix were added to 96‐well plates. Plates were incubated for 10 min at room temperature to allow for sufficient interaction of the test compound and enzyme. Following incubation, 10 μL (×10) of enzyme‐specific substrates were added and plates were vortex‐mixed for 30 s. Further, fluorescence was measured at the specified excitation and emission wavelengths for each substrate as recommended per individual kit protocol. Ketoconazole (0.004, 0.01, 0.03, 0.11, 0.33, and 1 μM) and α‐naphthoflavone (0.004, 0.01, 0.03, 0.11, 0.33, and 1 μM) were used as positive controls for CYP3A4 and CYP1A2, respectively. IC50 values were obtained from concentration‐response curves generated by plotting the percentage of inhibition versus concentration.^[ [46] ^]

CYP1A2 = biological target: T2, CYP1A2 (Homo sapiens, UniProt P05177); experiment: CYP inhibition assay; type: biochemical
T2 construct: purchased
T2 sequence (P05177 1-516): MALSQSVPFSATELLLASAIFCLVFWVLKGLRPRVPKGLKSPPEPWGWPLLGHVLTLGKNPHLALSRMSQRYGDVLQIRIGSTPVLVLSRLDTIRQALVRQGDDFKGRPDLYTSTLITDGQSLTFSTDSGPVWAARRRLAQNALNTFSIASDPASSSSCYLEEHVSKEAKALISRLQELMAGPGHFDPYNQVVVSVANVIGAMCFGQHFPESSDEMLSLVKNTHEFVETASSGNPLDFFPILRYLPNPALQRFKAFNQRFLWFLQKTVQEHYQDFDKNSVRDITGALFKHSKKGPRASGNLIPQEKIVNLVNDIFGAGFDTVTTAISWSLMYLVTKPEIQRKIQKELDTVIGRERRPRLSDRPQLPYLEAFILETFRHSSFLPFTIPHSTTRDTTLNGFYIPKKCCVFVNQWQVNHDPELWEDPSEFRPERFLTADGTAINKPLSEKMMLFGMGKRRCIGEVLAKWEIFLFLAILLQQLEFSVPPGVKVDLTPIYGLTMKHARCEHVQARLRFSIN
Protocol: as §1

Caco2 monolayers = experiment: In vitro transport study across 21‐day Caco2 monolayers; type: in vitro ADME, human
Protocol: Caco2 cells between passage numbers 42–50 and MDCK cells between passage numbers 21–26 were used for transport studies; the assay was conducted as reported by Volpe^[ [33] ^] with slight modifications. Transport experiments were performed in 12‐well Transwell plates. Caco2 cells were seeded at a density of 60,000 cells/cm^2 and grown for 21 days, with change of media every 3 days, while MDCK cells were seeded at a density of 70,000 cells/cm^2 and grown for 5 days, changing the medium daily. The physiological and morphological formation of a confluent monolayer was evaluated by measuring the TEER value: Caco2 monolayers became confluent 1 week after seeding with TEER values greater than 450 Ω/cm^2, while MDCK monolayers became confluent 24 h after seeding with TEER values greater than 90 Ω/cm^2. Phenol red and serum‐free DMEM/F12 medium was used as transport buffer. For bidirectional transport, VL (50 μM) and control compound (propranolol and paclitaxel, 10 μM) were added to the apical side to determine apical to basolateral transport (A–B; absorptive direction) and to the basal side to determine basolateral to apical transport (B–A; secretory direction). The volume of the apical and basolateral chambers was 0.5 and 1.5 mL, respectively. Aliquots of 120 μL were taken from the basolateral (for A–B transport) or the apical (for B–A transport) chamber at 30, 60, 90, and 120 min. An equal volume was replaced with a transport buffer at every time point. At the beginning and at the end of the experiment, an aliquot was also taken from the apical or basolateral chamber for analysis of the drug. To determine the integrity of monolayers, TEER values were measured before and after the experiment. In addition, at the end of the experiment cells were collected and lysed to evaluate the compound intake. Briefly, cells were washed twice with cold PBS and 200 µL of cold MeOH was added to detach and lysate the cells; subsequently, cells were collected into lo‐bind Eppendorf and sonicated in ice for 10 min, then centrifuged for 15 min at 4°C at 14,000 rpm (Eppendorf Centrifuge 5430 R). The supernatant was collected and used for further analysis.
The apparent permeability P app (cm/s) of compounds was calculated from the following equation (Equation 1), while P app (cm/s) of the metabolites was calculated from the equation (Equation 2): (1) Papp=dQ/dt×1/C×1/A.
Equation (1) for calculating P app (cm/s) of tested reference compounds. (2) Papp=Metabolic cleareance/A.
Equation (2) for calculating P app (cm/s) of compound metabolites.
with Metabolic cleareance=Rate of metabolism/C and where dQ/dt is the rate of transport, C is the initial concentration in the donor compartment, and A is the surface area of the filter. To quantify the rate of transport, cumulative amounts of test compounds were plotted against time (min).
Efflux ratio was calculated using the following equation (Equation 3)^[ [48] ^]: (3) Efflux ratio=Papp(B−A)/Papp(A−B).

T1 sequence (P08684 whole entry): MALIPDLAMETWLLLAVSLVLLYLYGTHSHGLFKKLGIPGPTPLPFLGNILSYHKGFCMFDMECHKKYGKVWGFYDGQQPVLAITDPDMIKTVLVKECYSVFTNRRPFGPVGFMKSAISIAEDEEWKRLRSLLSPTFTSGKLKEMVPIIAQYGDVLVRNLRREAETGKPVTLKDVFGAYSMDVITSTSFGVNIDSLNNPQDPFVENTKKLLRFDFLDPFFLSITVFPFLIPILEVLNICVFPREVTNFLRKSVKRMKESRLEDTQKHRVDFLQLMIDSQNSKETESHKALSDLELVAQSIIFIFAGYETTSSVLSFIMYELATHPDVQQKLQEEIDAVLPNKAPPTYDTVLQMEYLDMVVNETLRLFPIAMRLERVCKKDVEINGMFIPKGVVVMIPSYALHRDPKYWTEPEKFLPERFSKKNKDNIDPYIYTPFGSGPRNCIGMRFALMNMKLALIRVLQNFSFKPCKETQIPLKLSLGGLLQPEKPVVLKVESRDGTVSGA

O=C1CCC(Cc2ccc(O)c(O)c2)O1 (stereo not shown) [VL, 5‐(3′,4′‐dihydroxyphenyl)‐γ‐valerolactone]
IC50 (CYP3A4): > 25 µM
inhibition of CYP1A2 (CYP1A2): no inhibition effect
VL in the donor compartment at the end of the experiment (Caco2 monolayers; Caco2, 50 µM, 120 min): no longer detectable
conversion of VL to sulfate (Caco2 monolayers; after 30 min): 100%
